{"source": "patent US8022105B2", "about": "“Prevention of neutrophil recruitment” (The Brigham and Women's Hospital, Inc., priority 1999, dated 2011)", "key": {"isolated rat aorta": {"test_system": "isolated rat aorta", "test": "Relaxation of pre-contracted isolated rat aorta", "set-up": "relaxation as % of the level of relaxation caused by Iloprost: dose or concentration left out as unconfirmed", "details": "for relaxation of smooth muscle: aorta pre-contracted with U46619 (25 ng/ml)", "description": "Rats were euthanized with pentobarbital overdoses. The aorta was isolated and a pre-load of 300-400 mg given. The vessels were pre-contracted with U46619 (25 ng/ml). Relaxation was induced with addition of Iloprost, 5(R/S)-methyl-LXB4, ATLa1, or ATLa2 to a final concentration of […]. Aorta smooth muscle relaxation was measured with a force transducer and the data digitized and stored on a PC. 5(R/S)-methyl -LXB4, ATLa1, and ATLa2 caused 42.8%, 37.0%, 38.1%, and 40.0% relaxation of smooth muscle, respectively. Values represent±SEM (n=4-6).\nFor example, topical administration of LXA4 ([…]) induces arteriolar dilation in the hamster cheek with no change in venular diameters while systemic delivery into rats produces a vasoconstrictor response in the mesenteric bed (26). In addition, 20 min infusion of 1 or 2 mg/kg LXA4 induces renal vasorelaxation in rats without changing mean arterial pressure (27). To determine whether the increased stability of ATLa2 enhances potential vasoreactivity at the therapeutic dose found to inhibit PMN infiltration in FIGS. 2 and 5, vascular changes in response to ATLa2 were compared directly to those of Iloprost, a prostacyclin stable analog that rapidly stimulates arterial vasodilation (Grant, S. M. & Goa, K. L. (1992) Drugs 43, 899-924). Added to organ baths, ATLa2 relaxed precontracted isolated rat aorta to ˜40% of the level of relaxation caused by equimolar treatment ([…]) with Iloprost (not shown). […] In sharp contrast, injection of equimolar quantities of Iloprost elicited a maximum mean decrease of ˜28 mmHg ˜50 s post-injection, with pressure returning to baseline after ˜8 min."}, "[1]": {"test_system": "TNF-a-induced PMN infiltration", "test": "TNF-a-induced PMN infiltration into mouse dorsal air pouch", "format": "in vivo", "set-up": "toxicity to the mice: dose or concentration left out as unconfirmed", "details": "for inhibition of TNF-a-induced PMN infiltration, local air pouch delivery: local into air pouch prior to TNF-a (20 ng/mouse), ATLa2 and dexamethasone, ASA 1.0 mg/mouse", "description": "When injected locally into the air pouch, following injection of vehicle (900 ml PBS), murine TNF-a (20 ng/100 ml PBS) induced the infiltration of 4.8±1.1×10^6 PMN by 4 h. Dexamethasone (10 mg/air pouch), ASA (1 mg/air pouch), and ATLa2 (10 mg/air pouch) were locally administered in 900 ml PBS and prior to TNF-a. Systemic delivery of ATLa2 was by i.v. injection into the mouse tail vein (10 mg/mouse). 2.1±0.7×105 PMN were found in the air pouch 4 h after injection of vehicle (1 ml sterile PBS) alone. Values represent mean±SEM (n=3-5). *P<0.05, †P<0.15 Student's two-tailed t-test\nPMN infiltration into mouse air pouch. While male BALB/c mice (6-8 wk) were anesthetized with isoflurane, dorsal air pouches were raised by injecting 3 ml of sterile air subcutaneously on days 0 and 3 (as in ref.) (Sin, Y. M., Sedgwick, A. D., Chea, E. P. & Willoughby, D. A. (1986) Ann. Rheum. Dis. 45, 873-877). On day 6 and while the mice were anesthetized with isoflurane, 10 mg of ATLa2 was delivered as a bolus injection into either the tail vein in 100 ml of sterile 0.9% saline or locally into the air pouch in 900 ml of PBS −/− (Dulbecco's Phosphate Buffered Saline without magnesium or calcium ions, BioWhittaker, Walkersville, Md.). Dexamethasone and ASA (Sigma Chemical Co., St. Louis, Mo.) were delivered locally as 10 mg and 1.0 mg doses in 900 ml of PBS −/−, respectively. Inflammation in the air pouch was induced by local injection of recombinant murine TNF-a (20 ng) (Boehringer Mannheim, Indianapolis, Ind.) dissolved in 100 ml of sterile PBS. While the mice were anesthetized with isoflurane, the air pouches were lavaged twice with 3 ml of sterile PBS 4 h after the initial TNF-a injection. Aspirates were centrifuged at 2000 rpm for 15 min at 23° C. The supernatants were removed and the cells were suspended in […] of PBS. Aliquots of the cell suspension were stained with Trypan Blue and enumerated by light microscopy. 50 ml of the resuspended aspirate cells were added to 150 ml of 30% BSA and centrifuged onto microscope slides at 2200 rpm for 4 min using a Cytofuge (StatSpin, Norwood, Mass.). Slides were allowed to air dry and were stained with Wright Giemsa stain (Sigma Chemical Co., St. Louis, Mo.) for determination of differential leukocyte counts. For microscopic analysis, tissues were obtained with a 6 mm tissue biopsy punch (Acu-Punch, Acuderm, Inc., Ft. Lauderdale, Fla.) and fixed in 10% buffered formaldehyde. Samples were then embedded in paraffin, sliced, and stained with hematoxylin-eosin."}, "[2]": {"test": "Methyl ester hydrolysis of ATLa2 to free acid in ex vivo mouse whole blood", "format": "in vitro ADME", "details": "within 10-15 minutes, 2.8 μM in mouse whole blood", "description": "FIG. 7 represents methyl ester hydrolysis of ATLa2 to free acid in ex vivo mouse whole blood. ATLa2 was incubated ex vivo in mouse whole blood (2.8 μM) for 0, 2, 5, 10, 15, or 180 minutes. The incubations were stopped by chilling the blood on ice for one minute followed by centrifugation (800×g) at 0° C. The plasma supernatant was stopped in 2 vol of ice cold methanol. The samples were prepared for analysis by solid phase extraction and the amount of free acid in the sample was quantiitated by LC/MS/MS. Within 10-15 minutes, 100% of the ATLa2 methyl ester is hydrolyzed to the free acid without loss of compound. Values represent mean±SEM (n=3)."}, "[3]": {"test": "Mouse arterial pressure after tail vein injection", "format": "in vivo", "set-up": "maximum mean decrease in arterial pressure: dose or concentration left out as unconfirmed", "description": "Mouse arterial pressure was monitored with a pressure transducer via the cannulated carotid artery. […] 10 mg of ATLa2 were injected into 3 mice with no change in mean arterial pressure. Values represent mean±SEM (n=3). Arterial pressure. Male BALB/c mice (6-8 wk, 20 g) were anesthetized with pentobarbital (80 mg/kg). The trachea was isolated and a small polyethylene catheter (PE50) was introduced to maintain a patent airway. The right carotid artery was isolated and cannulated with PE 10 tubing filled with heparinized (10 units/ml) normal saline. The arterial catheter was connected to a pressure transducer (World Precision Instruments, Sarasota, Fla.) and the arterial pressure tracing was recorded continuously (Astromed MT95K2, West Warwick, R.I.). All surgical manipulations were performed using a surgical microscope (Carl Zeiss, Inc., Thomwood, N.Y.)."}, "[4]": {"details": "male, BALB/c, 3 h, 2.4 mM", "protocol": "(§1) LXA4 (21 mM) was incubated ex vivo in mouse whole blood for 3 h. […] (B) Biostability of LXA4 and stable analogs in mouse whole blood. LXA4, 15(R/S)-methyl-LXA4 (ATLa1, which carries a racemic methyl group at C-15), and 15-epi-16-(para-fluoro)-phenoxy-LXA4(ATLa2, in which a bulky (para-fluoro)-phenoxy group replaces the w-chain at C-16) were added (see Methods) to heparinized mouse whole blood and incubated at 37° C. for 0 and 3 h. Following centrifugation at 800×g and 0° C., the plasma supernatants were drawn off and stopped in two volumes of ice cold methanol. The lipoxins were extracted by solid phase methodology and quantitated by LC/MS/MS. Values represent means±SEM (n=3-4).\n(§2) Biostability of LX analogs in mouse whole blood. […] The methyl formate fractions were taken to dryness with a gentle stream of nitrogen and suspended in methanol for injection and quantitative analyses by UV spectrophotometry and LC/MS/MS.\n(§3) LC/MS/MS analyses. […] Samples were suspended in methanol and injected into the HPLC component, which consisted of a SpectraSYSTEM P4000 (Thermo Separation Products, San Jose, Calif.) quaternary gradient pump, a Prodigy octadecylsilane-3 (100×2 mm, 5 mm) column (Phenomenex, Torrance, Calif.) or a LUNA C18-2 (150×2 mm, 5 mm) column, and a rapid spectra scanning SpectraSYSTEM UV2000 (Thermo Separation Products, San Jose, Calif.) UV/VIS absorbance detector. […]"}, "[5]": {"test_system": "LTB4-induced PMN infiltration", "details": "added topically, in vivo; cited from earlier work"}, "[6]": {"test": "Biostability of LX analogs in mouse whole blood", "details": "incubated 3 h at 37° C., LC/MS/MS", "protocol": "as §1, §2, §3"}, "[7]": {"test": "Biostability in human whole blood", "format": "in vitro ADME"}}, "note": "“Also recorded” adds a separate entry of the source. Read-outs that look alike come from different tables or passages of the source."}
{"compound": "CCCCCC(O)C(O)C=CC=CC=CC=CC(C)(O)CCCC(=O)O", "note": "(racemic) [5(R/S)-methyl-LXB4]", "values": [{"measurement": "relaxation of smooth muscle", "setting": "isolated rat aorta", "value": 37.0, "unit": "%"}]}
{"compound": "CC(=O)Oc1ccccc1C(=O)O", "note": "[ASA, acetylsalicylic acid, reference compound]", "values": [{"measurement": "inhibition of TNF-a-induced PMN infiltration, local air pouch delivery", "setting": "[1]; 4 h", "value": 69, "unit": "%"}]}
{"compound": "COC(=O)CCC[C@H](O)[C@H](O)/C=C/C=C/C=C\\C=C\\[C@H](O)COc1ccc(F)cc1", "note": "[ATLa2]", "values": [{"measurement": "ATLa2 methyl ester hydrolyzed to the free acid", "setting": "[2]", "value": 100, "unit": "%"}, {"measurement": "change in mean arterial pressure", "setting": "[3]; (24 nmol/mouse) tail vein injection", "value": "no apparent changes; also recorded: no change"}, {"measurement": "inhibition of TNF-a-induced PMN infiltration, i.v. delivery", "setting": "[1]; i.v. tail vein before TNF-a (20 ng/mouse), 4 h", "value": 85, "unit": "%"}, {"measurement": "number of neutrophils in tissue lining of the air pouch (histology)", "setting": "[1]; intra-pouch injection or i.v. prior to TNF-a", "value": "reduced"}, {"measurement": "inhibition of TNF-a-induced PMN infiltration, local air pouch delivery", "setting": "[1]; 4 h", "value": "~77", "unit": "%"}, {"measurement": "toxicity to the mice", "setting": "[1]; local or i.v.", "value": "no apparent toxicity"}, {"measurement": "remaining / recoverable in mouse whole blood", "setting": "[4]", "value": "~100", "unit": "%"}, {"measurement": "relaxation of smooth muscle", "setting": "isolated rat aorta", "value": 40.0, "unit": "%"}, {"measurement": "relaxation as % of the level of relaxation caused by Iloprost", "setting": "isolated rat aorta; organ baths", "value": "~40", "unit": "%"}]}
{"compound": "C[C@@H]1C[C@H]2[C@@H]3CCC4=CC(=O)C=C[C@]4(C)[C@@]3(F)[C@@H](O)C[C@]2(C)[C@@]1(O)C(=O)CO", "note": "[dexamethasone, reference compound]", "values": [{"measurement": "inhibition of TNF-a-induced PMN infiltration, local air pouch delivery", "setting": "[1]; 4 h", "value": 61, "unit": "%"}]}
{"compound": "CCCCC[C@H](O)/C=C/C=C\\C=C\\C=C\\[C@@H](O)[C@@H](O)CCCC(=O)O", "note": "[LXA4, 5S,6R,15S-trihydroxyeicosa-7E,9E,11Z,13E-tetraenoic acid]", "values": [{"measurement": "level of inhibition of LTB4-induced PMN recruitment compared to that of either ATLa1 or ATLa2", "setting": "[5]", "value": "less than 25%"}]}
{"compound": "CC#CCC(C)[C@H](O)/C=C/[C@@H]1[C@H]2C/C(=C/CCCC(=O)O)C[C@H]2C[C@H]1O", "note": "(stereo partly shown) [Iloprost, reference compound]", "values": [{"measurement": "time of maximum mean decrease post-injection", "setting": "[3]; tail vein injection", "value": "~50", "unit": "s"}, {"measurement": "maximum mean decrease in arterial pressure", "setting": "[3]; tail vein injection, (equimolar to ATLa2)", "value": "~28", "unit": "mmHg"}, {"measurement": "relaxation of smooth muscle", "setting": "isolated rat aorta", "value": 42.8, "unit": "%"}]}
{"compound": "CCCCCC(C)(O)/C=C/C=C\\C=C\\C=C\\[C@@H](O)[C@@H](O)CCCC(=O)O", "note": "(mixture of isomers) [ATLa1, 15(R/S)-methyl-LXA4]", "values": [{"measurement": "remaining / recoverable in mouse whole blood", "setting": "[6]", "value": "~90", "unit": "%"}, {"measurement": "biostability in human whole blood compared with mouse whole blood", "setting": "[7]", "value": "quantitatively similar results"}, {"measurement": "relaxation of smooth muscle", "setting": "isolated rat aorta", "value": 38.1, "unit": "%"}]}
